Test results as given in patent US6100074A, “Mutant mono-oxygenase cytochrome P-450 cam” (BG plc, priority 1994, dated 2000).

Assays:
P-450cam mutant Y96A [1] = biological target: T1, P-450cam mutant Y96A (Pseudomonas putida, UniProt P00183, Y97A); assay: biochemical; type: binding; details: for percent displacement of bound DTT at 200 µM: Mutant Y96A, 200 μM DTT, 200 μM test compound
P-450cam mutant Y96A [2] = biological target: T1, P-450cam mutant Y96A; type: biochemical; design: key: Those substrates where oxidation has been demonstrated by means of NADH turnover are marked with a + sign
[3] = biological target: T2, P450cam mutant F87A-F96G-F193A (C334A) (Pseudomonas putida, UniProt P00183, C335A/F194A/F88A/Y97G); type: biochemical, P. putida
T2 construct: reconstituted with putidaredoxin and putidaredoxin reductase
Description: (§1) […] The enzymatic reaction was initiated by firstly adding NADH to a total concentration of 2 mM. Further four aliquots of NADH (to increase the NADH concentration by 1 mM each time) were added in intervals of 5 min and the reaction quenched after 30 min by adding 0.5 ml chloroform. The chloroform layer was analysed by gas chromatography.
(§2) Reaction products for some substrate compounds have been purified by high performance liquid chromatography and identified by mass spectroscopy, nuclear magnetic resonance, and/or co-elution. […] Table 4(a) to 4(h) details the product distributions for mutant and substrate combinations where this has been elucidated to date.
(§3) Product structure and distributions following oxidation of substrates
(§4) active site mutants. All mutants shown below also contain the C334A

[4] = biological target: T3, P450cam mutant Y96A, C334A (Pseudomonas putida, UniProt P00183, C335A/Y97A); type: biochemical, P. putida
T3 construct: reconstituted with putidaredoxin and putidaredoxin reductase
Description: as §1, §2, §3, §4

[5] = biological target: T4, P450cam mutant Y96F, C334A (Pseudomonas putida, UniProt P00183, C335A/Y97F); type: biochemical, P. putida
T4 construct: reconstituted with putidaredoxin and putidaredoxin reductase
Description: as §1, §2, §3, §4

[6] = biological target: T5, P450cam mutant Y96L, C334A (Pseudomonas putida, UniProt P00183, C335A/Y97L); assay: Product distribution following oxidation of substrates, Y96L (also C334A); type: biochemical, P. putida
T5 construct: reconstituted with putidaredoxin and putidaredoxin reductase
Description: as §1, §2, §3, §4

[7] = biological target: T6, P450cam mutant Y96V, C334A (Pseudomonas putida, UniProt P00183, C335A/Y97V); assay: Product distribution following oxidation of substrates, Y96V (also C334A); type: biochemical, P. putida
T6 construct: reconstituted with putidaredoxin and putidaredoxin reductase
Description: as §1, §2, §3, §4

wild type P450cam [8] = biological target: T7, wild type P450cam (Pseudomonas putida, UniProt P00183); assay: Product distribution following oxidation of substrates, WT; type: biochemical, P. putida; design: reconstituted with putidaredoxin and putidaredoxin reductase
Description: as §1, §2, §3
Target sequence in this assay (P00259 whole entry): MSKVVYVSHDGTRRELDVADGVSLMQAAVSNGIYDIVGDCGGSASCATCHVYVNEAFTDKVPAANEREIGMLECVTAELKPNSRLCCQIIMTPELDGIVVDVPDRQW
Target sequence in this assay (P00183 whole entry): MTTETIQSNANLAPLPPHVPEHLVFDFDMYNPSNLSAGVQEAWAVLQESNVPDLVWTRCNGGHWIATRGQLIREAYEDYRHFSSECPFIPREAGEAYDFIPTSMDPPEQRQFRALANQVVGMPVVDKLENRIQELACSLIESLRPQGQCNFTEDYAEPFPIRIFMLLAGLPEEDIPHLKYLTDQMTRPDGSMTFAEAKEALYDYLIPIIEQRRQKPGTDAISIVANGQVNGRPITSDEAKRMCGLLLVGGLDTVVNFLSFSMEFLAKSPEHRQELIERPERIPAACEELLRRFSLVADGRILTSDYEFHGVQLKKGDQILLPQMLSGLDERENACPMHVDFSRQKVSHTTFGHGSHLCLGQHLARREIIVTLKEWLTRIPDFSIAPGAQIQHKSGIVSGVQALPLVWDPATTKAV
Target sequence in this assay (P16640 whole entry, further chain): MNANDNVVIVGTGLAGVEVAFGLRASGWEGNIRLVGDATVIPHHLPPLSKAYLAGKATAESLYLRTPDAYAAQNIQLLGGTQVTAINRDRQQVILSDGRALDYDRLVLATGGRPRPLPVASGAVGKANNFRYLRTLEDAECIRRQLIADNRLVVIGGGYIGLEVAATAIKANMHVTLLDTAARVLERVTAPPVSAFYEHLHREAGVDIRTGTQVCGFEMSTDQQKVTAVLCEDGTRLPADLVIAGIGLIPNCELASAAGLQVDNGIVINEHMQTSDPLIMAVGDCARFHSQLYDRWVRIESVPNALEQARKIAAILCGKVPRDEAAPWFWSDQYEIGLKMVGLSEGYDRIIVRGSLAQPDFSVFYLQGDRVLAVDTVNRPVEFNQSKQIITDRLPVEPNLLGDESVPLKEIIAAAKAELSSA

[9] = biological target: T3, P450cam mutant Y96A, C334A; type: biochemical, P. putida; details: also contains C334A
Description: A solution containing 10 μM putidaredoxin, 2 μM putidaredoxin reductase, 1 μM cytochrome P-450cam mono-oyxgenase (wild-type or mutant) and 1 mM diphenylmethane in 100 mM KC1, 20 mM KH2 PO4 pH7.4 was preincubated at 25° C. in a shaker for 5 min. The enzymatic reaction was initiated by firstly adding NADH to a total concentration of 2 mM. Further four aliquots of NADH (to increase the NADH concentration by 1 mM each time) were added in intervals of 5 min and the reaction quenched after 30 min by adding 0.5 ml chloroform. The chloroform layer was analysed by gas chromatography.
as §2
All mutants listed below also contain the C334A mutation.
Turnover rate measured as NADH consumption rate
(nmole NADH/nmole P450cam/s).

wild type P450cam [10] = biological target: T7, wild type P450cam; assay: Turnover rate measured as NADH consumption rate, wild type; type: biochemical, P. putida; design: reconstituted with putidaredoxin and putidaredoxin reductase
Target sequence in this assay (P00259 whole entry): as the sequence (P00259 whole entry) above
Target sequence in this assay (P00183 whole entry): as the sequence (P00183 whole entry) above
Target sequence in this assay (P16640 whole entry, further chain): as the sequence (P16640 whole entry, further chain) above

wild type P450cam [11] = biological target: T7, wild type P450cam; assay: biochemical; type: binding; details: Wild type; 200 μM DTT, 200 μM test compound, phosphate buffer; read-out: Vs DTT (percentage displacement of DTT bound to P-450)
Target sequence in this assay (P00183 whole entry): as the sequence (P00183 whole entry) above

[12] = phosphate buffer, read-out: Vs DTT (percentage displacement of DTT bound to P-450)

T6 sequence (P16640 whole entry): as the sequence (P16640 whole entry, further chain) above
T6 sequence (P00259 whole entry, further chain): as the sequence (P00259 whole entry) above
T6 sequence (P00183 2-415 Y97V/C335A): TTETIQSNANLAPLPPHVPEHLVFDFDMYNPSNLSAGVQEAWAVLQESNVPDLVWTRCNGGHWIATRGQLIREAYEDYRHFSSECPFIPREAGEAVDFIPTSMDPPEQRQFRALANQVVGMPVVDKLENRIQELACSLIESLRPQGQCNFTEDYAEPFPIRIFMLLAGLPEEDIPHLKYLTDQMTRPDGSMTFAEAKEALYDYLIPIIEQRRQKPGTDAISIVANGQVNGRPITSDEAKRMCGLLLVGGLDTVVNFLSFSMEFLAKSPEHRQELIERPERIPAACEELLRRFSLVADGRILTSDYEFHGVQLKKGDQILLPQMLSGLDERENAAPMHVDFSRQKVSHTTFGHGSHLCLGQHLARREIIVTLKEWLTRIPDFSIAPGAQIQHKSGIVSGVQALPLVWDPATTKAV
T4 sequence (P16640 whole entry): as the sequence (P16640 whole entry, further chain) above
T4 sequence (P00183 2-415 Y97F/C335A): as the sequence (P00183 2-415 Y97V/C335A) above, with V96F counted along it
T4 sequence (P00259 whole entry, further chain): as the sequence (P00259 whole entry) above
T1 sequence (P00183 2-415 Y97A): as the sequence (P00183 2-415 Y97V/C335A) above, with V96A, A334C counted along it
T2 sequence (P00259 whole entry): as the sequence (P00259 whole entry) above
T2 sequence (P16640 whole entry, further chain): as the sequence (P16640 whole entry, further chain) above
T2 sequence (P00183 2-415 F88A/Y97G/F194A/C335A): as the sequence (P00183 2-415 Y97V/C335A) above, with F87A, V96G, F193A counted along it
T3 sequence (P00259 whole entry): as the sequence (P00259 whole entry) above
T3 sequence (P00183 2-415 Y97A/C335A): as the sequence (P00183 2-415 Y97V/C335A) above, with V96A counted along it
T3 sequence (P16640 whole entry, further chain): as the sequence (P16640 whole entry, further chain) above
T5 sequence (P00259 whole entry): as the sequence (P00259 whole entry) above
T5 sequence (P16640 whole entry, further chain): as the sequence (P16640 whole entry, further chain) above
T5 sequence (P00183 2-415 Y97L/C335A): as the sequence (P00183 2-415 Y97V/C335A) above, with V96L counted along it

SMILES: CCCCCCCCC [n-Nonane]
- percent displacement of bound DTT at 200 µM (P-450cam mutant Y96A [1]; [12]): 45%
- NADH turnover? (P-450cam mutant Y96A [2]): +

SMILES: c1ccc2c(c1)ccc1ccccc12 [Phenanthrene]
- percent displacement of bound DTT at 200 µM (P-450cam mutant Y96A [1]; [12]): 20%
- NADH turnover? (P-450cam mutant Y96A [2]): +
- Total products [3]: 0.065 area/10^6
- Products (%): A ([3]; phenanthrene): 27%
- Products (%): B ([3]; phenanthrene): 41%
- Products (%): C ([3]; phenanthrene): 3%
- Products (%): D ([3]; phenanthrene): 29%
- Total products [4]: 7.0 area/10^6
- Products (%): A ([4]; phenanthrene): 49%
- Products (%): B ([4]; phenanthrene): 23%
- Products (%): C ([4]; phenanthrene): 13%
- Products (%): D ([4]; phenanthrene): 15%
- Total products [5]: 4.5 area/10^6
- Products (%): A ([5]; phenanthrene): 41%
- Products (%): B ([5]; phenanthrene): 31%
- Products (%): C ([5]; phenanthrene): 5%
- Products (%): D ([5]; phenanthrene): 23%
- Total products [6]: 2.8 area/10^6
- Products (%): A ([6]; phenanthrene): 35.5%
- Products (%): B ([6]; phenanthrene): 41%
- Products (%): C ([6]; phenanthrene): 9%
- Products (%): D ([6]; phenanthrene): 14.5%
- Total products [7]: 1.6 area/10^6
- Products (%): A ([7]; phenanthrene): 41%
- Products (%): B ([7]; phenanthrene): 38%
- Products (%): C ([7]; phenanthrene): 11%
- Products (%): D ([7]; phenanthrene): 10%
- Total products (wild type P450cam [8]): 0.075 area/10^6
- Products (%): A (wild type P450cam [8]; phenanthrene): 38%
- Products (%): B (wild type P450cam [8]; phenanthrene): 15%
- Products (%): C (wild type P450cam [8]; phenanthrene): 12%
- Products (%): D (wild type P450cam [8]; phenanthrene): 35%

SMILES: CC(C)CC(C)C [2,4-dimethyl pentane]
- Turnover rate measured as NADH consumption rate [9]: 12.6 nmole NADH/nmole P450cam/s
- Turnover rate measured as NADH consumption rate (wild type P450cam [10]): 0.2 nmole NADH/nmole P450cam/s

SMILES: C1CCCCC1 [Cyclohexane]
- percent displacement of bound DTT at 200 µM (P-450cam mutant Y96A [1]; [12]): 60%
- NADH turnover? (P-450cam mutant Y96A [2]): +

SMILES: CCCC(C)C [2-methyl pentane]
- Turnover rate measured as NADH consumption rate [9]: 11.7 nmole NADH/nmole P450cam/s
- Turnover rate measured as NADH consumption rate (wild type P450cam [10]): 3.8 nmole NADH/nmole P450cam/s

SMILES: CCCC(C)CCC [4-methyl heptane]
- Turnover rate measured as NADH consumption rate [9]: 10.2 nmole NADH/nmole P450cam/s
- Turnover rate measured as NADH consumption rate (wild type P450cam [10]): 1.4 nmole NADH/nmole P450cam/s

SMILES: C1CCCCCC1 [cycloheptane]
- Turnover rate measured as NADH consumption rate [9]: 42.5 nmole NADH/nmole P450cam/s
- Turnover rate measured as NADH consumption rate (wild type P450cam [10]): 4.4 nmole NADH/nmole P450cam/s

SMILES: CC(C)CC(C)(C)C [2,2,4-trimethyl pentane]
- Turnover rate measured as NADH consumption rate [9]: 5.3 nmole NADH/nmole P450cam/s
- Turnover rate measured as NADH consumption rate (wild type P450cam [10]): 0.9 nmole NADH/nmole P450cam/s

SMILES: CCCCCC [Hexane]
- Vs DTT (percentage displacement of DTT bound to P-450) (P-450cam mutant Y96A [1]; phosphate buffer, 200 µM): 40
- inhibition at 200 µM (P-450cam mutant Y96A [1]; read-out: Vs DTT (percentage displacement of DTT bound to P-450)): 60%
- NADH turnover? (P-450cam mutant Y96A [2]): +
- Turnover rate measured as NADH consumption rate [9]: 6.0 nmole NADH/nmole P450cam/s
- Relative activity (WT = 1) [4]: 25.5
- Relative activity (WT = 1) [5]: 18.2

SMILES: CCCCCCCC [n-Octane]
- inhibition at 200 µM (wild type P450cam [11]): 5%
- percent displacement of bound DTT at 200 µM (P-450cam mutant Y96A [1]; [12]): 45%
- NADH turnover? (P-450cam mutant Y96A [2]): +
- Turnover rate measured as NADH consumption rate [9]: 5.8 nmole NADH/nmole P450cam/s

SMILES: CCC(C)CC [3-methyl pentane]
- Turnover rate measured as NADH consumption rate [9]: 14.2 nmole NADH/nmole P450cam/s
- Turnover rate measured as NADH consumption rate (wild type P450cam [10]): 1.3 nmole NADH/nmole P450cam/s

SMILES: CCCC(C)(C)C [2,2-dimethyl pentane]
- Turnover rate measured as NADH consumption rate [9]: 12.8 nmole NADH/nmole P450cam/s
- Turnover rate measured as NADH consumption rate (wild type P450cam [10]): 5.2 nmole NADH/nmole P450cam/s

SMILES: c1ccc2ccccc2c1 [Naphthalene]
- percent displacement of bound DTT at 200 µM (P-450cam mutant Y96A [1]; [12]): 20%
- Total products [3]: 0.1 area/10^5
- Products (%): 1-ol ([3]; naphthalene): 100%
- Products (%): 2-ol ([3]; naphthalene): 0%
- Total products [4]: 1.1 area/10^5
- Products (%): 1-ol ([4]; naphthalene): 100%
- Products (%): 2-ol ([4]; naphthalene): 0%
- Total products [5]: 2.4 area/10^5
- Products (%): 1-ol ([5]; naphthalene): 100%
- Products (%): 2-ol ([5]; naphthalene): 0%
- Total products [6]: 0.7 area/10^5
- Products (%): 1-ol ([6]; naphthalene): 100%
- Products (%): 2-ol ([6]; naphthalene): 0%
- Total products [7]: 1.4 area/10^5
- Products (%): 1-ol ([7]; naphthalene): 100%
- Products (%): 2-ol ([7]; naphthalene): 0%
- Total products (wild type P450cam [8]): 0.016 area/10^5
- Products (%): 1-ol (wild type P450cam [8]; naphthalene): 100%
- Products (%): 2-ol (wild type P450cam [8]; naphthalene): 0%

SMILES: CCCCC [n-Pentane]
- inhibition at 200 µM (wild type P450cam [11]): 5%
- percent displacement of bound DTT at 200 µM (P-450cam mutant Y96A [1]; [12]): 40%
- NADH turnover? (P-450cam mutant Y96A [2]): +
- Turnover rate measured as NADH consumption rate [9]: 5.8 nmole NADH/nmole P450cam/s
